We go through 2 compounds from patent US20080234340A1, “Synthesis and characterization of polymorph form II of 4-(2-(4,4-dimethyl-2-oxooxazolidin-3-YL)thiazol-4-YL)benzonitrile” (Wyeth, priority 2007, published 2008).

In data set [1] the target is T1, progesterone receptor (PR) (Homo sapiens, UniProt P06401).
T1 construct: in live, intact (whole) cells using the human breast carcinoma T47D cell line; endogenous in cells; host or cells: T47D human breast carcinoma cells
T1 sequence (P06401 1-933): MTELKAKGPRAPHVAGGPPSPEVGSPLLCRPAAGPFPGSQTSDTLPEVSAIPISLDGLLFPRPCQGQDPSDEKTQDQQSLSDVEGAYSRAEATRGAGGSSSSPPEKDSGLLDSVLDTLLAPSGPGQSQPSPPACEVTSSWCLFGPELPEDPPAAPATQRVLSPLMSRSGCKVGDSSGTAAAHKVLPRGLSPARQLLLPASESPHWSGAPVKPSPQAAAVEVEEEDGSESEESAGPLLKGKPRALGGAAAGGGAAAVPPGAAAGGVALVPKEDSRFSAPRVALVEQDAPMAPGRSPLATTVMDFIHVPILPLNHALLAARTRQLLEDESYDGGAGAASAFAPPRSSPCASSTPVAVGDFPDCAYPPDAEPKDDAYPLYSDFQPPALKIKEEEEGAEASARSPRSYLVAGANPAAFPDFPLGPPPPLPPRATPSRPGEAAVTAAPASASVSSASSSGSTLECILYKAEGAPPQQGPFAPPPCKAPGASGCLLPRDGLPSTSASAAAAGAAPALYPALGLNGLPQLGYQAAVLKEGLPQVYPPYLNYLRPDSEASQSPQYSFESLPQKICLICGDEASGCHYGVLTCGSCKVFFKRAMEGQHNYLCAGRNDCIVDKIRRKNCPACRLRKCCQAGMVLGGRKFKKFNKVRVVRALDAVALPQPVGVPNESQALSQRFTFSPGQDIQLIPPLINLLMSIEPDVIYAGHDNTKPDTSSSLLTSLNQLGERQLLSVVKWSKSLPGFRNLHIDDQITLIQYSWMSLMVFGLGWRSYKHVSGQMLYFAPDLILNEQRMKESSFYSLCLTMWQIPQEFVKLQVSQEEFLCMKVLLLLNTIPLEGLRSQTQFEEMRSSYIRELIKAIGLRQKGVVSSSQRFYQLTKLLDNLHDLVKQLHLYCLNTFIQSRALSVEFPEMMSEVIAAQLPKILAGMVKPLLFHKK
The experiment in a line: T47D alkaline phosphatase activity assay to identify progestins or antiprogestins. Format: cell-based. The note with it: T47D cells. An excerpt: (§1) The compound 4-(2-(4,4-dimethyl-2-oxooxazolidin-3-yl)thiazol-4-yl)benzonitrile has shown activity for modulating PR activity in assays to identify progestins or antiprogestins by (a) determining effect on alkaline phosphatase activity in T47D cells or (b) evaluating the progesterone receptor (PR) binding activity in live, intact (whole) cells using the human breast carcinoma T47D cell line and ^3H-progesterone as the labeled ligand (data presented in Table below).

In data set [2] the target is T1, progesterone receptor (PR). The experiment in a line: PR whole cell binding in T47D cells with 3H-progesterone as labeled ligand. The note with it: live, intact T47D cells; 3H-progesterone labeled ligand.
Source text: as §1

Data set [3] is described as follows: Hygroscopicity (ability to absorb water/moisture from the air). Format: physicochemical. Conditions: normal, atmospheric conditions. An excerpt:
One of skill in the art would readily be able to measure the hygroscopicity of Form II using techniques known in the art including, without limitation, dynamic vapor sorption (DVS) at relative humidities ranging from 0 to 100%. This decreased hygroscopic property of Form II thereby permits longer shelf life and storage of the solid compound in comparison to Form I.

Data set [4] is described as follows: Solubility in solvent at room temperature, centrifuged after 24 hours, supernatant assayed. The format is physicochemical. The protocol:
In another embodiment, the solvent is 2% Tween® 80 reagent in water, wherein Tween® 80 is a polyoxyethylene (20) sorbitan monooleate. One of skill in the art would readily be able to measure the solubility of Form II using techniques known in the art. Typically, the solubility was measured by adding Form II to a solvent at room temperature, centrifuging the solution after 24 hours, and assaying the supernatant. This increased solubility is observed when Form II is immersed in water.
In this example, the solubility of polymorph Form II of 4-(2-(4,4-dimethyl-2-oxooxazolidin-3-yl)thiazol-4-yl)benzonitrile in water is measured.

For the compound `CC1(C)COC(=O)N1c1nc(-c2ccc(C#N)cc2)cs1` [4-(2-(4,4-dimethyl-2-oxooxazolidin-3-yl)thiazol-4-yl)benzonitrile], 3.1 nM corresponded to half-maximal inhibition in data set [1] (IC50). Besides, the Ki (in general, a measure of affinity in units of concentration, obtained from inhibition or displacement) in data set [2] is 4.9 nM.
As for `CC1(C)COC(=O)N1c1nc(-c2ccc(C#N)cc2)cs1` [Form II, 4-(2-(4,4-dimethyl-2-oxooxazolidin-3-yl)thiazol-4-yl)benzonitrile], the “Hygroscopicity compared with Form I” value in data set [3] is listed as “less hygroscopic than Form I”. Moreover, the “Solubility compared with Form I” value in data set [4] (solvents such as water and hydrophilic non-ionic surfactants (2% Tween 80 in water), room temperature, 24 hours) is “more soluble”. In addition, the “Solubility in water relative to Form I” value in data set [4] (water) amounted to 4 times.
